This passage reports IC50 results from patent US6642355B2, “Endothelin-antagonizing peptide” (priority 1991, dated 2003).

Like-named read-outs stand apart in the source and are kept apart here. Bridge positions count the residues as written; N and C are the ends. Peptide text beside a SMILES is read from it.

The assay deals with T1, endothelin receptor (Bos taurus, UniProt P28088).
T1 construct: from tissue; host or cells: bovine cerebellar membrane fraction
T1 sequence (P28088 27-441): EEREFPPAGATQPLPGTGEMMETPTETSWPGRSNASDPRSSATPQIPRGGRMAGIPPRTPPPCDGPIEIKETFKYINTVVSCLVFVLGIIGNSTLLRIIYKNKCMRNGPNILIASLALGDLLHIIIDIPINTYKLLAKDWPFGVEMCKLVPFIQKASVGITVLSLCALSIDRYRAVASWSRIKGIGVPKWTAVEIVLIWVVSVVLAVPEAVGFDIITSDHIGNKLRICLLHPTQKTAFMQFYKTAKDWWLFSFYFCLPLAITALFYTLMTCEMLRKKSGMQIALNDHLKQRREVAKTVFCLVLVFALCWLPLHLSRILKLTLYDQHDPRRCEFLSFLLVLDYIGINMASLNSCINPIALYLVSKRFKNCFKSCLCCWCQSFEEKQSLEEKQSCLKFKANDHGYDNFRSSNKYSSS
The assay is described as follows: Endothelin receptor-antagonizing effect: 125I-endothelin-1 binding to bovine cerebellar tissue membrane fraction.

The mark [1] stands for this setting: bovine cerebellar tissue membrane fraction.

With `C[C@@H]1NC(=O)[C@H]([C@@H](C)O)NC(=O)CNC(=O)[C@H](Cc2c[nH]cn2)NC(=O)[C@H](Cc2c[nH]c3ccccc23)NC(=O)[C@H](CC(N)=O)NC(=O)CNC(=O)C[C@@H](C(=O)O)NC(=O)[C@@H]2CCCN2C1=O` [Compound I-14] (GNWHGTAPD-OH; lactam N-9), the concentration for half-maximal inhibition (IC50) (in general, the concentration at which inhibition is half-maximal) is > 1000 nM.
On to `CC[C@H](C)[C@H](NC(=O)[C@@H](NC(=O)[C@H](CC(=O)O)NC(=O)[C@H](CCC(N)=O)NC(=O)[C@H](Cc1c[nH]cn1)NC(=O)[C@H](C)NC(=O)[C@H](Cc1ccccc1)NC(=O)[C@H](Cc1ccc(O)cc1)NC(=O)[C@H](CC(C)C)NC(=O)[C@H](Cc1c[nH]c2ccccc12)NC(=O)[C@H](CC(=O)O)NC(=O)[C@@H]1CCCN1C(=O)[C@H](C)NC(=O)[C@@H](NC(=O)CNC(=O)[C@H](Cc1c[nH]cn1)NC(=O)[C@H](Cc1c[nH]c2ccccc12)NC(=O)[C@H](CC(N)=O)NC(=O)CN)[C@@H](C)O)C(C)C)C(=O)N[C@@H](Cc1c[nH]c2ccccc12)C(=O)O` [Compound I-38], for which the IC50 was found to be 0.33 nM.
The same measure, in the same setting: the value for `CC(=O)N[C@H]1CSSC[C@@H](C(=O)N[C@@H](Cc2c[nH]c3ccccc23)C(=O)N[C@@H](Cc2ccccc2)C(=O)N[C@@H](Cc2ccccc2)C(=O)N[C@@H](CC(N)=O)C(=O)N[C@@H](Cc2ccc(O)cc2)C(=O)N[C@@H](Cc2ccc(O)cc2)C(=O)N[C@@H](Cc2c[nH]c3ccccc23)C(=O)O)NC(=O)[C@@H]2CCCN2C(=O)[C@H](C)NC(=O)[C@H]([C@@H](C)O)NC(=O)CNC(=O)[C@H](Cc2c[nH]cn2)NC(=O)[C@H](Cc2c[nH]c3ccccc23)NC(=O)[C@H](CC(N)=O)NC1=O` [Compound I-8] (Ac-CNWHGTAPCWFFNYYW-OH; disulfide 1-9) was > 5000 nM; that for `C[C@@H]1NC(=O)[C@H](C)NC(=O)[C@H]([C@@H](C)O)NC(=O)CNC(=O)[C@H](Cc2c[nH]cn2)NC(=O)[C@H](Cc2c[nH]c3ccccc23)NC(=O)[C@H](CC(N)=O)NC(=O)CNC(=O)C[C@@H](C(=O)N[C@@H](Cc2c[nH]c3ccccc23)C(=O)N[C@@H](Cc2ccccc2)C(=O)N[C@@H](Cc2ccccc2)C(=O)N[C@@H](CC(N)=O)C(=O)N[C@@H](Cc2ccc(O)cc2)C(=O)N[C@@H](Cc2ccc(O)cc2)C(=O)N[C@@H](Cc2c[nH]c3ccccc23)C(=O)O)NC1=O` [Compound I-36] (GNWHGTAADWFFNYYW-OH; lactam N-9) was > 570 nM.
Regarding `CC[C@H](C)[C@H](NC(=O)[C@H](CC(=O)O)NC(=O)[C@H](CC(C)C)NC(=O)[C@H](Cc1c[nH]cn1)NC(=O)[C@H](C)NC(=O)[C@H](Cc1ccccc1)NC(=O)[C@H](Cc1ccc(O)cc1)NC(=O)[C@@H](NC(=O)[C@H](Cc1c[nH]c2ccccc12)NC(=O)[C@H](CC(=O)O)NC(=O)[C@@H]1CCCN1C(=O)[C@H](C)NC(=O)[C@@H](NC(=O)CNC(=O)[C@H](Cc1c[nH]cn1)NC(=O)[C@H](Cc1c[nH]c2ccccc12)NC(=O)[C@H](CC(N)=O)NC(=O)CN)[C@@H](C)O)C(C)C)C(=O)N[C@H](C(=O)N[C@@H](Cc1c[nH]c2ccccc12)C(=O)O)[C@@H](C)CC` [Compound I-26], the IC50 under setting [1] was < 0.13 nM.
Consider `CC[C@H](C)[C@H](NC(=O)[C@H](CC(=O)O)NC(=O)[C@H](CC(C)C)NC(=O)[C@H](Cc1c[nH]cn1)NC(=O)[C@H](C)NC(=O)[C@H](Cc1ccccc1)NC(=O)[C@H](Cc1ccc(O)cc1)NC(=O)[C@@H](NC(=O)[C@H](Cc1c[nH]c2ccccc12)NC(=O)[C@H](CC(=O)O)NC(=O)[C@@H]1CCCN1C(=O)[C@H](C)NC(=O)[C@@H](NC(=O)CNC(=O)[C@H](CCCCN)NC(=O)[C@H](Cc1c[nH]c2ccccc12)NC(=O)[C@H](CC(N)=O)NC(=O)CN)[C@@H](C)O)C(C)C)C(=O)N[C@H](C(=O)N[C@@H](Cc1c[nH]c2ccccc12)C(=O)O)[C@@H](C)CC` [Compound I-44], for which the IC50 is 0.29 nM.
In the case of `CC[C@H](C)[C@H](NC(=O)[C@H](CC(=O)O)NC(=O)[C@H](CC(C)C)NC(=O)[C@H](Cc1c[nH]cn1)NC(=O)[C@H](C)NC(=O)[C@H](Cc1ccccc1)NC(=O)[C@H](Cc1ccc(O)cc1)NC(=O)[C@@H](NC(=O)[C@H](Cc1c[nH]c2ccccc12)NC(=O)[C@H](CC(=O)O)NC(=O)[C@@H]1CCCN1C(=O)[C@H](C)NC(=O)[C@@H](NC(=O)CNC(=O)[C@H](Cc1c[nH]cn1)NC(=O)[C@H](Cc1c[nH]c2ccccc12)NC(=O)[C@H](CC(=O)O)NC(=O)CN)[C@@H](C)O)C(C)C)C(=O)N[C@H](C(=O)N[C@@H](Cc1c[nH]c2ccccc12)C(=O)O)[C@@H](C)CC` [Compound I-43], the IC50 was determined as 0.63 nM.
Consider `CC[C@H](C)[C@H](NC(=O)[C@H](CC(=O)O)NC(=O)[C@H](CC(C)C)NC(=O)[C@H](Cc1c[nH]cn1)NC(=O)[C@H](C)NC(=O)[C@H](Cc1c[nH]c2ccccc12)NC(=O)[C@@H]1CC(=O)NCC(=O)N[C@@H](CC(N)=O)C(=O)N[C@@H](Cc2c[nH]c3ccccc23)C(=O)N[C@@H](Cc2c[nH]cn2)C(=O)NCC(=O)N[C@@H]([C@@H](C)O)C(=O)N[C@@H](C)C(=O)N2CCC[C@H]2C(=O)N1)C(=O)N[C@H](C(=O)N[C@@H](Cc1c[nH]c2ccccc12)C(=O)O)[C@@H](C)CC` [Compound I-35] (GNWHGTAPDWAHLDIIW-OH; lactam N-9 (inferred); C-terminus assumed), for which the IC50 under setting [1] is > 51 nM.
Regarding `CC[C@H](C)[C@H](NC(=O)[C@H](CC(N)=O)NC(=O)[C@H](Cc1ccc(O)cc1)NC(=O)[C@H](Cc1ccc(O)cc1)NC(=O)[C@H](CC(N)=O)NC(=O)[C@H](Cc1ccccc1)NC(=O)[C@H](Cc1ccccc1)NC(=O)[C@H](Cc1c[nH]c2ccccc12)NC(=O)[C@@H]1CC(=O)NCC(=O)N[C@@H](CC(N)=O)C(=O)N[C@@H](Cc2c[nH]c3ccccc23)C(=O)N[C@@H](Cc2c[nH]cn2)C(=O)NCC(=O)N[C@@H]([C@@H](C)O)C(=O)N[C@@H](C)C(=O)N2CCC[C@H]2C(=O)N1)C(=O)N[C@H](C(=O)N[C@@H](Cc1c[nH]c2ccccc12)C(=O)O)[C@@H](C)CC` [Compound I-39] (GNWHGTAPDWFFNYYNIIW-OH; lactam N-9), under setting [1], the IC50 is > 72 nM.
Turning to `C[C@@H]1NC(=O)[C@H]([C@@H](C)O)NC(=O)CNC(=O)[C@H](Cc2c[nH]cn2)NC(=O)[C@H](Cc2c[nH]c3ccccc23)NC(=O)[C@H](CC(N)=O)NC(=O)CNC(=O)C[C@@H](C(=O)N[C@@H](Cc2c[nH]c3ccccc23)C(=O)O)NC(=O)[C@@H]2CCCN2C1=O` [Compound I-15] (GNWHGTAPDW-OH; lactam N-9), the IC50 was > 900 nM.
As to `C[C@@H]1NC(=O)[C@H]([C@@H](C)O)NC(=O)CNC(=O)[C@H](Cc2c[nH]cn2)NC(=O)[C@H](Cc2c[nH]c3ccccc23)NC(=O)[C@H](CC(N)=O)NC(=O)CNC(=O)C[C@@H](C(=O)N[C@@H](Cc2c[nH]c3ccccc23)C(=O)N[C@@H](Cc2ccccc2)C(=O)N[C@@H](Cc2ccccc2)C(=O)N[C@@H](CC(N)=O)C(=O)N[C@@H](Cc2ccc(O)cc2)C(=O)N[C@@H](Cc2ccc(O)cc2)C(=O)N[C@@H](Cc2c[nH]c3ccccc23)C(=O)N[C@@H](CC(N)=O)C(=O)N[C@@H](Cc2ccc(O)cc2)C(=O)N[C@@H](Cc2ccc(O)cc2)C(=O)N[C@@H](Cc2c[nH]c3ccccc23)C(=O)O)NC(=O)[C@@H]2CCCN2C1=O` [Compound I-19] (GNWHGTAPDWFFNYYWNYYW-OH; lactam N-9), the IC50 amounted to 370 nM.
Molecule `CC[C@H](C)[C@H](NC(=O)[C@H](CC(=O)O)NC(=O)[C@H](CC(C)C)NC(=O)[C@H](Cc1c[nH]cn1)NC(=O)[C@H](C)NC(=O)[C@H](Cc1ccc(O)cc1)NC(=O)[C@H](Cc1ccc(O)cc1)NC(=O)[C@@H](NC(=O)[C@H](Cc1c[nH]c2ccccc12)NC(=O)[C@H](CC(=O)O)NC(=O)[C@@H]1CCCN1C(=O)[C@H](C)NC(=O)[C@@H](NC(=O)CNC(=O)[C@H](Cc1c[nH]cn1)NC(=O)[C@H](Cc1c[nH]c2ccccc12)NC(=O)[C@H](CC(N)=O)NC(=O)CN)[C@@H](C)O)C(C)C)C(=O)N[C@H](C(=O)N[C@@H](Cc1c[nH]c2ccccc12)C(=O)O)[C@@H](C)CC` [Compound I-37] had an IC50 under setting [1] of 0.83 nM.
On the same count and under the same terms, the value for `CC(C)[C@H](NC(=O)[C@H](Cc1c[nH]c2ccccc12)NC(=O)[C@@H]1CC(=O)NCC(=O)N[C@@H](CC(N)=O)C(=O)N[C@@H](Cc2c[nH]c3ccccc23)C(=O)N[C@@H](Cc2c[nH]cn2)C(=O)NCC(=O)N[C@@H]([C@@H](C)O)C(=O)N[C@@H](C)C(=O)N2CCC[C@H]2C(=O)N1)C(=O)N[C@@H](Cc1ccc(O)cc1)C(=O)N[C@@H](Cc1ccccc1)C(=O)N[C@@H](C)C(=O)N[C@@H](Cc1ccccc1)C(=O)N[C@@H](Cc1ccccc1)C(=O)N[C@@H](CC(N)=O)C(=O)N[C@@H](Cc1ccc(O)cc1)C(=O)N[C@@H](Cc1ccc(O)cc1)C(=O)N[C@@H](Cc1c[nH]c2ccccc12)C(=O)O` [Compound I-33] (GNWHGTAPDWVYFAFFNYYW-OH; lactam N-9) was > 40 nM.
As for `C[C@@H]1NC(=O)[C@H]([C@@H](C)O)NC(=O)CNC(=O)[C@H](Cc2c[nH]cn2)NC(=O)[C@H](Cc2c[nH]c3ccccc23)NC(=O)[C@H](CC(N)=O)NC(=O)CNC(=O)C[C@@H](C(=O)N[C@@H](Cc2c[nH]c3ccccc23)C(=O)N[C@@H](Cc2ccccc2)C(=O)N[C@@H](Cc2ccccc2)C(=O)N[C@@H](CC(N)=O)C(=O)N[C@@H](Cc2ccc(O)cc2)C(=O)N[C@@H](Cc2ccc(O)cc2)C(=O)N[C@@H](Cc2ccc3ccccc3c2)C(=O)O)NC(=O)[C@@H]2CCCN2C1=O` [Compound I-49], the IC50 is 6.3 nM.
On to `C[C@@H]1NC(=O)[C@H]([C@@H](C)O)NC(=O)CNC(=O)[C@H](Cc2c[nH]cn2)NC(=O)[C@H](Cc2c[nH]c3ccccc23)NC(=O)[C@H](CC(N)=O)NC(=O)[C@@H](N)CSSC[C@@H](C(=O)N[C@@H](Cc2c[nH]c3ccccc23)C(=O)N[C@@H](Cc2ccccc2)C(=O)N[C@@H](Cc2ccccc2)C(=O)N[C@@H](CC(N)=O)C(=O)N[C@@H](Cc2ccc(O)cc2)C(=O)N[C@@H](Cc2ccc(O)cc2)C(=O)N[C@@H](Cc2c[nH]c3ccccc23)C(=O)O)NC(=O)[C@@H]2CCCN2C1=O` [Compound I-7] (H-CNWHGTAPCWFFNYYW-OH; disulfide 1-9), for which the half-inhibitory concentration (IC50) was > 5000 nM.
